pIC50: −log10 of the molar value. Entries after “also recorded” stand apart in the source; their conditions may differ.
Tests used:
[1] = tested on: linearized plasmid pUC18 DNA; assay: DNA intercalation assay; format: binding; conditions: up to 100 μM, compared to doxorubicin
Description: Since there are multiple modes of inhibition of ligase activity, we wanted to determine whether 8k inhibited ligation by direct inhibition alone or through other means as well such as DNA intercalation. DNA intercalation assay was performed as described by Furlan et al., Biotechnol. Lett. 2002, 24, 1807-1813. We incubated 100 ng of linearized plasmid pUC18 DNA with increasing concentrations (50, 100, 200 μM) of Doxorubicin (positive control), ampicillin (negative control), and 8k for 30 minutes at 37° C. Reaction products were resolved on a 1% agarose gel at 5.3 V/cm. Gel was visualized by ethidium bromide staining.

[2] = tested on: mouse embryo fibroblasts (NIH/3T3); assay: MTT assay for cell viability, NIH/3T3; format: cell-based; conditions: NIH3T3, 48 h
Description: (§1) The human cancer cell lines e.g. HepG2 (hepatocellular carcinoma, ATCC® HB-8065™), PC-3 (human prostate cancer cells, ATCC® CRL-1435™), MCF-7 (breast adenocarcinoma, ATCC® […]), and mouse embryo fibroblasts (NIH/3T3, ATCC® CRL-1658™), used in the present study were obtained from the ATCC (American Type Culture Collection, USA and maintained in RPMI 1640 (Roswell Park Memorial Institute, Merck) with 10% FBS (Merck), supplemented with 1% antibiotic and antimycotic solution (Gibco, USA) at 37° C. in a humidified incubator with 5% CO2. All stock solutions of the compounds were prepared in cell culture grade DMSO (dimethyl sulfoxide) and stored at −20° C. Compounds were diluted in culture media prior to use in experiments. Annexin V-FITC apoptosis detection kits were purchased from Calbiochem. MTT dye was procured from Sigma-Aldrich. All the flow cytometry experiments were performed using a FACScan (Becton Dickinson, Mountain View, Calif.) flow cytometer, equipped with a single 488 nm argon laser.
(§2) Cell viability was assessed by MTT assay, which is based on the reduction of MTT by mitochondrial dehydrogenases of viable cells to form a purple formazan product. Briefly, cells (5-6×10^3/well) were plated in 96 well plates. After incubating overnight, the cells were treated with […] different concentrations (100, 50, 20, 10, 5, 2.5, 1.25 μM) in triplicates with the cationic lipidated cordiarimide and intermediates for 48 h. Subsequently, 10 μL of MTT (10 mg/mL) was added to each well and incubated for 3 h. The MTT formazan formed by viable cells was dissolved in 100 μL of DMSO and shaken for 10 min. The absorbance was measured on an ELISA reader. Each test was repeated at least three times. The concentration of the compound which gives the 50% growth inhibition value corresponding to IC50, was calculated using GraphPad prism 5 software. In the present invention we have screened 26 lipidated cordiarimides and the results are described in table 1.

[3] = tested on: MCF-7 (breast adenocarcinoma); assay: MTT assay for cell viability, MCF-7; format: cell-based, human
Description: as §1, §2

[4] = tested on: HepG2, NH/3T3, PC-3, MCF-7 cell lines; assay: MTT assay, summary over the cell line panel; format: cell-based; conditions: across tested cell lines
Description: as §1, §2

[5] = tested on: HepG2 (hepatocellular carcinoma); assay: MTT assay for cell viability, HepG2; format: cell-based, human
Description: as §1, §2

human ligase I = human ligase I (Homo sapiens, UniProt P18858); assay: Ligation assay, DNA ligase I; format: biochemical
Excerpt: (§3) The ligation assay was done strictly following the assay protocol described in Xi Chen et. al, Cancer Res 2008; 68(9):3169-3177. The DNA molecules 52 mer (5′-3′), 28-mer (5′-3′) and 34-mer (5′-3′) were used to construct a double stranded nicked substrate for the ligase enzyme (FIG. 4). The 34-mer oligo was labelled with 32P-AMP to form a substrate for ligase and to form a ligase-AMP intermediate. During ligation, the ligase would transfer the AMP to the nick forming a phosphodiester bond and seal the nick. The ligated DNA molecule would be larger in size and run higher up on a 7% Urea-containing denaturing acrylamide gel. If an inhibitor is added to the reaction mixture prior to the addition of ligase, this would lead to an inhibition of ligation and a corresponding loss of labelled ligated product in the gel. We would then be able to calculate the percentage of inhibition of ligation by estimating the amount of ligated product in the lane with no inhibitor and comparing it with the lanes containing different inhibitor molecules or with the same inhibitor molecule at different concentrations.

[6] = tested on: PC-3 (human prostate cancer cells); assay: MTT assay for cell viability, PC-3; format: cell-based; conditions: 48 h
Description: as §1, §2

HepG2 cells = assay: Cell cycle analysis, PI staining by flow cytometry; format: cell-based, human; conditions: HepG2, 24 h, 5, 10, and 20 mM as printed
Description: For cell cycle distribution studies after treatment with different molar concentrations of 8i and 8k, HepG2 cells were fixed overnight in 70% ethanol, rehydrated in PBS with ribonuclease A (100 μg/ml) and Triton-X (1%) for 30 min at room temperature then PI (at 50 μg/ml) was added and incubated in the dark for 30 min and analyzed with a flow cytometer. Experiments were repeated two times independently.

T4 DNA ligase = target: T1, T4 DNA ligase (Enterobacteria phage T4, UniProt P00970); assay: Ligation assay, T4 DNA ligase control; format: biochemical; conditions: 5 μM
T1 sequence (P00970 1-487): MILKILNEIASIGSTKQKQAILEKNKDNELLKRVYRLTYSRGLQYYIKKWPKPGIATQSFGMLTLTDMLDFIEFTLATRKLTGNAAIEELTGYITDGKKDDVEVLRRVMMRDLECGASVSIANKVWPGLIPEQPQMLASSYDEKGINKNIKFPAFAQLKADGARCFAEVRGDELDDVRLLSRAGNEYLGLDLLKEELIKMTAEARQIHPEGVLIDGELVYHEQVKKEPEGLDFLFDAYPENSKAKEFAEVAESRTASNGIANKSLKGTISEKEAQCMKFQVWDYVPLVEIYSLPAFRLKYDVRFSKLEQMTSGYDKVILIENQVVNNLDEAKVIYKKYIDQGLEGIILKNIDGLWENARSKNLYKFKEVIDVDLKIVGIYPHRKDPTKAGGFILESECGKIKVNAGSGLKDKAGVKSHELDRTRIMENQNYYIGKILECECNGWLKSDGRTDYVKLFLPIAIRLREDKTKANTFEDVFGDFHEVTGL
Excerpt: as §3

Chain of human ligase I (P18858 whole entry): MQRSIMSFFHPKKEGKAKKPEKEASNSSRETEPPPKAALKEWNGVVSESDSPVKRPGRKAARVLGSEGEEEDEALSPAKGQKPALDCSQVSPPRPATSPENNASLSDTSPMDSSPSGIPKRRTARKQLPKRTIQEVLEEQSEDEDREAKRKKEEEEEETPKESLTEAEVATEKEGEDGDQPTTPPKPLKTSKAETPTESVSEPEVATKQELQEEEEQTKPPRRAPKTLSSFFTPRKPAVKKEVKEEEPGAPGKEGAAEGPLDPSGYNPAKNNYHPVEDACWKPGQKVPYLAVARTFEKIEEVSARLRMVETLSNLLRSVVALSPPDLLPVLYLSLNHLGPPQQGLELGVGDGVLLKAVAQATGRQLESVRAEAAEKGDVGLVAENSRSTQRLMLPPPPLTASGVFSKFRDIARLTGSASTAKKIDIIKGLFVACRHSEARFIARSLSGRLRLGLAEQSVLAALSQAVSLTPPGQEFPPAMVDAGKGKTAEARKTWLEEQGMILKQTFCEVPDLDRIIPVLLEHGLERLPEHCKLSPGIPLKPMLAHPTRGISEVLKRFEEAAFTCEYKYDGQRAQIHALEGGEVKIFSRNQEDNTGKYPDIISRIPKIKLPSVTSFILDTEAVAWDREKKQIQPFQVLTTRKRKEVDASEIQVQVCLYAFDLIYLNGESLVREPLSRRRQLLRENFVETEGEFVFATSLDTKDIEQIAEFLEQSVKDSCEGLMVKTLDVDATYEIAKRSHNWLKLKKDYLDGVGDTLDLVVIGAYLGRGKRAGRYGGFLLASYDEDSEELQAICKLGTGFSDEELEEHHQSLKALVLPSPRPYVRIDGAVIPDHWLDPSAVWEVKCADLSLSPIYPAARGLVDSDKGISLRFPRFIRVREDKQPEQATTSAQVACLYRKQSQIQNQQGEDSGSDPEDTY

CCCCCCCCCCCC[N+](C)(CCCCCCCCCCCC)CC(=O)NC1CCC(=O)N(CC(=O)c2ccccc2)C1=O (centres unmarked) [Compound 8k, {[2,6-Dioxo-1-(2-oxo-2-phenyl-ethyl)-piperidin-3-ylcarbamoyl]-methyl}-Didodecyl-methyl-ammonium iodide]
DNA intercalation [1]: no appreciable intercalation
pIC50 [2]: < 4.70
pIC50 ([3]; 48 h): < 4.70
pIC50 ([3]; Homo sapiens, MCF7, 48 h): 4.58
antiproliferative / anticancer activity (in words) [4]: selective anti-proliferative activity at lower concentrations
pIC50 ([5]; 48 h): 5.73
pIC50 ([5]; Homo sapiens, HepG2, 48 h): 5.74
inhibition at 1 µM (human ligase I; 1 μM): ~50%
inhibition of ligase I activity (human ligase I; 10 μM): complete inhibition
DNA ligase I / ligation inhibition (in words) (human ligase I; screening, FIG. 4 and FIG. 7): most prolific inhibitor of ligation; also recorded: inhibition of DNA ligase I activity; also recorded: showed inhibition of DNA ligation
pIC50 [6]: 5.25
pIC50 ([6]; Homo sapiens): 5.25
effect on cell cycle progression (HepG2 cells): significant accumulation of cells in G0/G1 phase; also recorded: blocked the cell cycle in G0/G1 phase
inhibition of T4 ligase (T4 DNA ligase): No appreciable inhibition
